Laboratory results published in patent US20150290176A1, “USE OF MTOR INHIBITORS TO TREAT VASCULAR COGNITIVE IMPAIRMENT” (THE BOARD OF REGENTS OF THE UNIVERSITY OF TEXAS SYSTEM, priority 2012, published 2015).
Where two headings read alike, the source gives them in different places.

Experiments:
[1] = system: NO production in cortical vessels; assay: In vivo imaging of NO production in cortical vessels with NO-sensitive probe DAF-FM; design: species or system mouse; conditions: L-NAME 30 mg/kg intraperitoneally before rapamycin
Source text: (§1) In vivo imaging experiments. Details of experimental procedures were identical to our previously published protocols (Zheng, et al., 2010). Briefly, mice were anesthetized with volatile isoflurane through a nosecone (3% induction, 1.5% maintenance). The depth of anesthesia was monitored by regular checking of whisker movement and the pinch withdrawal reflex of the hind limb and tail. Also, during surgery and imaging, three main vital signs including heart rate, respiratory rate, and oxygen saturation were periodically assessed by use of the MouseOx system (STARR Life Sciences). Body temperature was maintained at 37° C. by use of feedback-controlled heating pad (Gaymar T/Pump). Initially, the scalp was shaved, incised along the midline and retracted to expose the dorsal skull. Then removal of periosteum by forceps and cleaning of skull by a sterile cotton swab were performed. A stainless steel head plate was glutted (VetBond, 3M, St. Paul, Minn.) to dorsal skull and screwed to a custom-made stereotaxic frame. To create a thin-skull cranial window over the somotosensory cortex, skull was initially thinned by high-speed electric drill (Fine Science Tools, Foster City, Calif.) and subsequently thinned to approximate 50 μm by using a surgical blade under a dissecting microscope (Nikon SMZ800). […] The diameter of blood vessels was analyzed by Image J plugin vessel diameter. […]

[2] = system: cortical vessels; assay: In vivo 2-photon imaging of cortical vessel diameter; design: species or system mouse
Source text: as §1

[3] = system: AD mice; assay: Cerebral blood flow by MRI continuous arterial spin labeling; type: in vivo, mouse; conditions: rapamycin-fed 16 weeks, then L-NAME for 4 additional weeks
Method: Rapamycin treatment. Mice were fed chow containing either microencapsulated enteric-coated rapamycin at 2.24 mg/kg or a control diet as described by Harrison et al., 2009. Rapamycin was used at 14 mg per kg food (verified by HPLC). On the assumption that the average mouse weighs 30 gm and consumes 5 gm of food/day, this dose supplied 2.24 mg rapamycin per kg body weight/day (Harrison, et al., 2009). All mice were given ad libitum access to rapamycin or control food and water for the duration of the experiment. Body weights and food intake were measured weekly. […] Littermates (transgenic and non-transgenic mice) were housed together, thus we could not distinguish effects of genotype on food consumption. […]
Animal Preparation for Functional Neuroimaging. […] Respiration rate (90-130 bpm) and rectal temperature (37±0.5° C.) were continuously monitored. Heart rate and blood oxygen saturation level (SaO2) were recorded using a MouseOx system (STARR Life Science Corp., Oakmont, Pa.) and maintained within normal physiological ranges.
Cerebral Blood Flow. Quantitative CBF (with unit of […]) was measured using the MRI based continuous arterial spin labeling (CASL) techniques (Duong, et al., 2000; Muir, et al., 2008) on a horizontal 7T/30 cm magnet and a 40G/cm BGA12S gradient insert (Bruker, Billerica, Mass.). […]

[4] = Rapamycin levels in brain regions of AD mice chronically fed rapamycin-supplemented chow; type: in vivo; conditions: PDAPP transgenic (AD mice), mouse, oral, 2.24 mg/kg body weight/day, AD mice chronically fed rapamycin chow (2.24 mg/kg/day)
Method: The inventors used magnetic resonance imaging (MRI) arterial spin labeling (ASL) techniques in vivo, as well as other functional imaging, in vivo optical imaging, and behavioral and biochemical tools to determine whether rapamycin treatment affects the progression of established deficits in the transgenic PDAPP mouse model of Alzheimer's Disease (Galvan, et al., 2005; Hsia, et al., 1999; Mucke, et al., 2000) (“AD mice”). AD mice and unaffected littermates were treated with rapamycin after the onset of AD-like impairments at 7 months of age (Galvan, et al., 2005; Hsia, et al., 1999; Mucke, et al., 2000) for a total of 16 weeks. Rapamycin levels in brain regions of AD mice chronically fed with rapamycin ranged from 0.98 to 2.40 pg/mg. Levels in hippocampus were 1.55 pg/mg (see FIG. 5).
Rapamycin treatment. Mice were fed chow containing either microencapsulated enteric-coated rapamycin at 2.24 mg/kg or a control diet as described by Harrison et al., 2009. Rapamycin was used at 14 mg per kg food (verified by HPLC). On the assumption that the average mouse weighs 30 gm and consumes 5 gm of food/day, this dose supplied 2.24 mg rapamycin per kg body weight/day (Harrison, et al., 2009). All mice were given ad libitum access to rapamycin or control food and water for the duration of the experiment. Body weights and food intake were measured weekly. […]

[5] = Body weight and food intake during rapamycin feeding; type: in vivo, mouse
Method: Rapamycin treatment. Mice were fed chow containing either microencapsulated enteric-coated rapamycin at 2.24 mg/kg or a control diet as described by Harrison et al., 2009. Rapamycin was used at 14 mg per kg food (verified by HPLC). On the assumption that the average mouse weighs 30 gm and consumes 5 gm of food/day, this dose supplied 2.24 mg rapamycin per kg body weight/day (Harrison, et al., 2009). All mice were given ad libitum access to rapamycin or control food and water for the duration of the experiment. Body weights and food intake were measured weekly. […] Littermates (transgenic and non-transgenic mice) were housed together, thus we could not distinguish effects of genotype on food consumption. Even though there were no differences in food consumption, body weights of rapamycin-fed non-transgenic, but not transgenic, females increased moderately during treatment, (6.8% increase for rapamycin-fed vs control-fed non-transgenic females). The higher increase in body weight for non-transgenic animals is not unexpected, since non-transgenic animals of both genders tend to be slightly (1-3 g) heavier than AD transgenic.

SMILES: COC(=O)[C@@H](N)CCCNC(=N)N[N+](=O)[O-] [L-NAME, L-NG-Nitroarginine methyl ester]
- Effect of L-NAME pretreatment on rapamycin-induced NO release [1]: abrogated
- Effect of L-NAME pretreatment on rapamycin-induced vasodilation ([2]; L-NAME 30 mg/kg intraperitoneally before rapamycin): abrogated
- CBF in rapamycin-fed AD mice injected with L-NAME [3]: CBF deficits comparable to control-fed AD mice

SMILES: CO[C@H]1C[C@@H]2CC[C@@H](C)[C@@](O)(O2)C(=O)C(=O)N2CCCC[C@H]2C(=O)O[C@H]([C@H](C)C[C@@H]2CC[C@@H](O)[C@H](OC)C2)CC(=O)[C@H](C)/C=C(\C)[C@@H](O)[C@@H](OC)C(=O)[C@H](C)C[C@H](C)/C=C/C=C/C=C/1C [rapamycin]
- Increase in diameter of small and medium-sized cortical vessels ([2]; rapamycin 10 mg/kg intraperitoneally, 10 min after administration): 23-35%
- concentration at 16 weeks ([4]; hippocampus, read-out: Rapamycin levels in hippocampus): 1.55 ng/g
- concentration at 16 weeks ([4]; range over brain regions, read-out: Rapamycin levels in brain regions): 0.98 to 2.4 ng/g
- Food consumption ([5]; control- vs rapamycin-fed groups): comparable
- Body weight increase, rapamycin-fed vs control-fed ([5]; non-transgenic females, during treatment): 6.8%
